Test results: US20060167030A1, “Sulfonamido-macrocycles and the salts thereof, a pharmaceutical composition comprising these compounds, the method of preparing and the use thereof” (priority 2004, published 2006)

Key:
Tie2 = target: T1, Tie2 (Homo sapiens, UniProt Q02763); test: Tie2 kinase assay or Tie2 autophosphorylation ELISA test (not stated which); format: biochemical; conditions: either assay; not specified per compound; read-out: IC50 of Tie2 inhibition, either in the Tie2 kinase assay or in the Tie2 autophosphorylation ELISA test
T1 construct: fused on or other part: GST in the kinase assays; none in the CHO cell assay
T1 sequence (Q02763 770-1124 limits assumed): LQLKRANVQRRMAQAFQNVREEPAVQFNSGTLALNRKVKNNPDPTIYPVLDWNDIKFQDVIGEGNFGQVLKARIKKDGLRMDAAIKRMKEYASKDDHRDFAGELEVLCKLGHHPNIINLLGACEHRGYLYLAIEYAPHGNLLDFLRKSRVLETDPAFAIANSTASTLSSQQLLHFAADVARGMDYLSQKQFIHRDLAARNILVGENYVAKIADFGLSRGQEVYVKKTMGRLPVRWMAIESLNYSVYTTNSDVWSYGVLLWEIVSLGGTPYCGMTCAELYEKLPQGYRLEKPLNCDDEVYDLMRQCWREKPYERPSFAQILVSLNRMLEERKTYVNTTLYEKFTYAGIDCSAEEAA
Description: Biological Experiment 1: ELISA Method
Herein CHO cell-cultures, which are stably transfected by known techniques with Tie2 using DHFR deficiency as selection marker, are stimulated by angiopoietin-2. The specific autophosphorytation of Tie2 receptors is quantified with a sandwich-ELISA using anti-Tie2 antibodies for catch and anti-phosphotyrosine antibodies coupled to HRP as detection.
• 96 well tissue culture plate, sterile, Greiner • 96 well FluoroNunc plate MaxiSorp Surface C, Nunc • 96 well plate polypropylene for compound dilution in DMSO • CHO Tie2/DHFR (transfected cells) • PBS−; PBS++, DMSO • MEM alpha Medium with Glutamax-I without Ribonucleosides and Deoxyribonucleosides (Gibco #32561-029) • with 10% FCS after dialysis! and 1% PenStrep • Lysis buffer: 1 Tablet “Complete” protease inhibitor • 1 cap Vanadate (1 mL>40 mg/mL; working solution 2 mM) • ad 50 mL with Duschl-Puffer • pH 7.6 • Anti-TIE-II antibody 1:425 in Coating Buffer pH 9.6 • Stock solution: 1.275 mg/mL>working: 3 μg/mL • PBST: 2 bottles PBS(10×)+10 ml Tween, fill up with VE-water • RotiBlock 1:10 in VE-water • Anti-Phosphotyrosine HRP-Conjugated 1:10000 in 3% TopBlock • 3% TopBlock in PBST • BM Chemiluminescence ELISA Substrate (POD) • solution B 1:100 solution A • SF9 cell culture medium • Ang2-Fc in SF9 cell culture medium Cell Experiment: • Dispense 5×10^4 cells/well/98 μL in 96 well tissue culture plate • Incubate at 37° C./5% CO2 • After 24 h add compounds according to desired concentrations • Add also to control and stimulated values without compounds 2 μL DMSO • And mix for a few min at room temperature • Add 100 μL Ang2-Fc to all wells except control, which receives insect medium • Incubate 20 min at 37° C. • Wash 3× with PBS++ • Add 100 μl Lysis buffer/well and shake a couple of min at room temperature • Store lysates at […] before utilizing for the ELISA Performance of Sandwich-ELISA • Coat 96 well FluoroNunc Plate MaxiSorp Surface C with anti-Tie2 Mab • 1:425 in Coating buffer pH 9.6; 100 μL/well overnight at 4° C. • Wash 2× with PBST • Blcock plates with 250 μL/well RotiBtock 1:10 in VE-water • Incubate for 2 h at room temperature or overnight at 4° C. shaking • Wash 2× in PBST • Add thawed lysates to wells and incubate overnight shaking at 4° C. • Wash 2× with PBST • Add 100 μL/well anti-Phosphotyrosine HRP-Conjugated 1:10000 in 3% TopBLock (3% TopBLock in PBST) and incubate overnight under shaking • Wash 6× with PBST • Add 100 μL/well BM Chemiluminescence ELISA Substrate (POD) solutions 1 und 2 (1:100) • Determine luminescence with the LumiCount. Biological Experiment 2: Tie-2-Kinase HTRF-Assay
Tie-2 phosphorylates tyrosine residues of the artificial substrate poLyGAT (biolinylated poLyGLuAlaTyr). Detection of phosphorylated product is achieved specifically by a trimeric detection complex consisting of the phosphorylated substrate, streptavidin-XLent (SA-XLent) which binds to biotin, and Europium Cryptate-LabeLed anti-phosphotyrosine antibody PT66 which binds to phosphorylated tyrosine. Excitation of Europium fluorescence with 337 nm light results in emission of long-lived light with 620 nm. In case a trimeric detection complex has formed, part of the energy will be transferred to the SA-XLent fluorophore that itself then emits long-lived light of 665 nm (FRET: fluorescence resonance energy transfer). […] Measurement is performed in a Packard Discovery or BMG Rubystar instrument. A-counts (emission at 665 nm) will be divided by B-counts (emission at 620 nm) and multiplicated with a factor of 10000. The resulting numbers are called the “well ratio” of the sample.
A recombinant fusion protein of GST and the intracellular domains of Tie-2, expressed in insect cells (Hi-5) and purified by Glutathion-Sepharose affinity chromatography was used as kinase. Alternatively, commercially available GST-Tie2-fusion protein (Upstate Biotechnology, Dundee, Scotland) can be used. […]

[1] = Proliferation test / cytotoxicity assay (crystal violet); format: cell-based; conditions: human, DU 145 tumour cells; cell line DU 145
Protocol: Biological Experiment 3: Proliferation Test
To examine cell toxicity a cell proliferation test were established.
With the cell proliferation test different tumour cell lines (e.g. Du 145) can be examined. The cells were dispensed in RPMI 1640 culture medium, supplied with 10% (v/v) fetal calf serum plus 1% (v/v) Penicillin/Streptomycin solution at a cell density of 2.000 cell/100 μL medium/per well (96 well plate). After three hours the cells were washed with PBS (containing calcium and magnesium). 100 μL of culture medium above with 0.1% (v/v) fetal calf serum was added and cultured at 37° C. and 5% CO2-atmosphere. Next day compounds of the present invention diluted in DMSO for appropriate concentrations were added and further 100 μL culture medium 0.5% (v/v) fetal calf serum. After 5 days cell culturing at 37° C. and 5% CO2-atmosphere cells were washed with PBS. 20 μL of glutaraldehyde solution (11% (v/v)) is added and the cells were slightly shaken at room temperature for 15 min. After that the cell were washed 3 times and dried in the air. 100 μL of crystal violet solution (0.1% at pH 3.5) were added and the cells were shaken for 30 min. The cells were washed with tap water and air-dried. The colour is dissolved with 100 μL of acetic acid (10% (v/v)) under strong shaking for 5 min. The absorption was measured at 595 nm wavelength.

Row | SMILES | IC50 (Tie2) [nM] | IC50 at 5 days [1] [nM]
1 | COC(=O)c1ccc(-c2cnc3nc2NCCCNS(=O)(=O)c2cccc(c2)N3)cc1 [Example 6, methyl 4-[4,4-dioxo-4λ^6-thia-2,5,9-triaza-1(2,4)-pyrimidina-3(1,3)-benzenacyclononaphan-1^5-yl]benzoate] | ≤ 2000 | > 1000
2 | CC(=O)c1ccc(-c2cnc3nc2NCCCNS(=O)(=O)c2cccc(c2)N3)cc1 [Example 7, 1-[4-[4,4-dioxo-4λ^6-thia-2,5,9-triaza-1(2,4)-pyrimidina-3(1,3)-benzenacyclononaphan-1^5-yl]phenyl]-ethanone] | ≤ 2000 | > 1000
3 | O=S1(=O)NCCCNc2nc(ncc2-c2ccccc2)Nc2cccc1c2 [Example 8, 1^5-phenyl-4-thia-2,5,9-triaza-1(2,4)-pyrimidina-3(1,3)-benzenacyclononaphane 4,4-dioxide] | ≤ 2000 | > 1000
4 | O=S1(=O)NCCCNc2nc(ncc2-c2ccc(O)cc2)Nc2cccc1c2 [Example 9, 4-[4,4-dioxo-4λ^6-thia-2,5,9-triaza-1(2,4)-pyrimidina-3(1,3)-benzenacyclononaphan-1^5-yl]phenol] | ≤ 2000 | –
5 | COc1ccc(-c2cnc3nc2NCCCNS(=O)(=O)c2cccc(c2)N3)cc1 [Example 10, 1^5-(4-methoxyphenyl)-4-thia-2,5,9-triaza-1(2,4)-pyrimidina-3(1,3)-benzenacyclononaphane 4,4-dioxide] | ≤ 2000 | > 1000
6 | CS(=O)(=O)c1ccc(-c2cnc3nc2NCCCNS(=O)(=O)c2cccc(c2)N3)cc1 [Example 11, 1^5-(4-methylsulfonylphenyl)-4-thia-2,5,9-triaza-1(2,4)-pyrimidina-3(1,3)-benzenacyclononaphane 4,4-dioxide] | ≤ 2000 | –
7 | O=S1(=O)NCCCNc2nc(ncc2/C=C\c2ccccc2)Nc2cccc1c2 [Example 51, 1^5-((Z)-styryl)-4-thia-2,5,9-triaza-1(2,4)-pyrimidina-3(1,3)-benzenacyclononaphane 4,4-dioxide] | ≤ 2000 | –
8 | C=C(c1ccccc1)c1cnc2nc1NCCCNS(=O)(=O)c1cccc(c1)N2 [Example 52, 1^5-(1-phenyl-vinyl)-4-thia-2,5,9-triaza-1(2,4)-pyrimidina-3(1,3)-benzenacyclononaphane 4,4-dioxide] | ≤ 2000 | –
